Laboratory results published in publication PMC10882719 (Frontiers in Neuroscience, 2024).
Where two headings read alike, the source gives them in different places.

Columns and labels:
Format in all cases: cell-based
168 GPCRs [1] = biological target: T1, 168 GPCRs (Homo sapiens, UniProt Q9Y5Y4)
T1 construct: host or cells: PathHunter cell lines
T1 sequence (Q9Y5Y4 1-395): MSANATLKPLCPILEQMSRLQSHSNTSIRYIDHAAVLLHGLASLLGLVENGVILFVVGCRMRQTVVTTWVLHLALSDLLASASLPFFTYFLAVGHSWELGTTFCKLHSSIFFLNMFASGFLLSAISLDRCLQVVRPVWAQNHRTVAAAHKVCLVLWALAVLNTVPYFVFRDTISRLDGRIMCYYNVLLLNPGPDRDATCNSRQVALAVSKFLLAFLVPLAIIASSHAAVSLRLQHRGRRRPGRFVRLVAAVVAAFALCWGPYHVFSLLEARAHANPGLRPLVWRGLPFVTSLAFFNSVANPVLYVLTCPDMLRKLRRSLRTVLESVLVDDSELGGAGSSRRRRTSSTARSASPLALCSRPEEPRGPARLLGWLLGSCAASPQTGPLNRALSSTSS

168 GPCRs [2] = biological target: T2, 168 GPCRs (Homo sapiens, UniProt P47871); details: GCGR
T2 construct: host or cells: PathHunter cell lines
T2 sequence (P47871 26-477): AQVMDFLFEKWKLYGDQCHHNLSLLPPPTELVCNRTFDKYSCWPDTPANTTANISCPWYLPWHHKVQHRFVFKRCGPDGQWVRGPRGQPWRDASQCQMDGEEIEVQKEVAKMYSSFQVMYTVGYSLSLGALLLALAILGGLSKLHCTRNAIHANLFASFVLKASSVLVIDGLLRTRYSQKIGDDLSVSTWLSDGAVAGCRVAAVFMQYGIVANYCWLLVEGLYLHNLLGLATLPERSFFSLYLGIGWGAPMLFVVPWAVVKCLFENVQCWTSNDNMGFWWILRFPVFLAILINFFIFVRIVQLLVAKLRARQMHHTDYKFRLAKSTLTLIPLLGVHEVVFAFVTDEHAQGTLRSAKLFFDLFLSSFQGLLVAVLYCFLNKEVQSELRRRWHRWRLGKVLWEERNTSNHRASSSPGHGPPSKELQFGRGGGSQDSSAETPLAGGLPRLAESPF

168 GPCRs [3] = biological target: T3, 168 GPCRs (Homo sapiens, UniProt Q8TDS5); details: OXER1
T3 construct: host or cells: PathHunter cell lines
T3 sequence (Q8TDS5 whole entry): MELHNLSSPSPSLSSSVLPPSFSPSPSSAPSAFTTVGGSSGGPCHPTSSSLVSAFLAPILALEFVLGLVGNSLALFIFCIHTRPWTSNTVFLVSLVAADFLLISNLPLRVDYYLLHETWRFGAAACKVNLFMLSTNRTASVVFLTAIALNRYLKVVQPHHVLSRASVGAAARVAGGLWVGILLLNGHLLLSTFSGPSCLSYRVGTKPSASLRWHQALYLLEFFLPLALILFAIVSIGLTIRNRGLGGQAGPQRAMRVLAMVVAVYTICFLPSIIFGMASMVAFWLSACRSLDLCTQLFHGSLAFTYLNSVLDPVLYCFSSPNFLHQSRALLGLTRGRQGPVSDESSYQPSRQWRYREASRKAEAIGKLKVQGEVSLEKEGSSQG

168 GPCRs [4] = biological target: T4, 168 GPCRs (Homo sapiens, UniProt P48146)
T4 construct: host or cells: PathHunter cell lines
T4 sequence (P48146 whole entry): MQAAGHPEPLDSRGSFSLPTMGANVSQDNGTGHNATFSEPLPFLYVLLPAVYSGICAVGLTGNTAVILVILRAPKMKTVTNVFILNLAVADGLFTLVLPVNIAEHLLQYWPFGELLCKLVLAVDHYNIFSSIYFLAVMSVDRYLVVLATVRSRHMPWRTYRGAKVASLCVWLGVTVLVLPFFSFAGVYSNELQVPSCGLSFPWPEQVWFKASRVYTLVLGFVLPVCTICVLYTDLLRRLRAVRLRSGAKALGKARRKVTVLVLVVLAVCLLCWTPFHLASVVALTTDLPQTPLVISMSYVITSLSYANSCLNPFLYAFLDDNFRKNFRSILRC

168 GPCRs [5] = biological target: T5, 168 GPCRs (Homo sapiens, UniProt P49238)
T5 construct: host or cells: PathHunter cell lines
T5 sequence (P49238 1-355): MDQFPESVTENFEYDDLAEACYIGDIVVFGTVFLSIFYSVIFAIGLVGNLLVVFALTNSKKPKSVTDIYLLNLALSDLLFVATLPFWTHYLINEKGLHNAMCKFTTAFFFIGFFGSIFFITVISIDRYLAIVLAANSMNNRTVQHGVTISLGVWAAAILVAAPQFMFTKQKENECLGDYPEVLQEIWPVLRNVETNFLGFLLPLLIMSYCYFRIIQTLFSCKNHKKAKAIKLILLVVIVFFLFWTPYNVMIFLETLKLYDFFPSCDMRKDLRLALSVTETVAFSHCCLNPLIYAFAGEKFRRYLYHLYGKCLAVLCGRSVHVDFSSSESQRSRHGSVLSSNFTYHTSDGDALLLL

168 GPCRs [6] = biological target: T6, 168 GPCRs (Homo sapiens, UniProt O43613)
T6 construct: host or cells: PathHunter cell lines
T6 sequence (O43613 1-425): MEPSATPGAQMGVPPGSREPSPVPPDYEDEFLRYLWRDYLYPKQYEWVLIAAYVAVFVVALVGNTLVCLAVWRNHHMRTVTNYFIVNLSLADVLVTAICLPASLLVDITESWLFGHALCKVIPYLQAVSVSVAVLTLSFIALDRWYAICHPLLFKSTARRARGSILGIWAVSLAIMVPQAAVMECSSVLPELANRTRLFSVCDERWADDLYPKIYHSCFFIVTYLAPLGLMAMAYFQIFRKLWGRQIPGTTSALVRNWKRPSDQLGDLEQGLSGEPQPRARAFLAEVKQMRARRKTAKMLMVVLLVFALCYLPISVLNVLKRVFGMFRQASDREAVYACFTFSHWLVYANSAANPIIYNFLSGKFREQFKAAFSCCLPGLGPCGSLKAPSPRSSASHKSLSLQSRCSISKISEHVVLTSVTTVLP

168 GPCRs [7] = biological target: T7, 168 GPCRs (Homo sapiens, UniProt Q9UKP6); details: UTR2
T7 construct: host or cells: PathHunter cell lines
T7 sequence (Q9UKP6 1-389): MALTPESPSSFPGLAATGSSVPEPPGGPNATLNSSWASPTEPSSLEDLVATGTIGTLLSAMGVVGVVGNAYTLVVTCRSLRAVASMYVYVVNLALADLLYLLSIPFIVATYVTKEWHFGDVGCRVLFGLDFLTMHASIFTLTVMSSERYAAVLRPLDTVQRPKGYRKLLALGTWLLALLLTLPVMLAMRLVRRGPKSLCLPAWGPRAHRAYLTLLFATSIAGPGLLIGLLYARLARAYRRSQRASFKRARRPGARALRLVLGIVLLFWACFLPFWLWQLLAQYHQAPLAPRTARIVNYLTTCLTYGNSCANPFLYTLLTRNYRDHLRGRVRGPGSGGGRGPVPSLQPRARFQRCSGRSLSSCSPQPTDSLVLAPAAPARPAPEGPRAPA

Compound	% Agonist Activity (168 GPCRs [1]; CRTH2, 1 uM) [%]	% Antagonist Activity (168 GPCRs [1]; CRTH2, 1 uM) [%]	% Agonist Activity (168 GPCRs [1]; CRTH2, 10 uM) [%]	% Antagonist Activity (168 GPCRs [1]; CRTH2, 10 uM) [%]	% Agonist Activity (168 GPCRs [2]; 1 uM) [%]	% Antagonist Activity (168 GPCRs [2]; 1 uM) [%]	% Agonist Activity (168 GPCRs [2]; 10 uM) [%]	% Antagonist Activity (168 GPCRs [2]; 10 uM) [%]	% Agonist Activity (168 GPCRs [3]; Conc 1 uM) [%]	% Antagonist Activity (168 GPCRs [3]; Conc 1 uM) [%]	% Agonist Activity (168 GPCRs [3]; Conc 10 uM) [%]	% Antagonist Activity (168 GPCRs [3]; Conc 10 uM) [%]	% Agonist Activity (168 GPCRs [4]; NPBWR2, 1 uM) [%]	% Antagonist Activity (168 GPCRs [4]; NPBWR2, 1 uM) [%]	% Agonist Activity (168 GPCRs [4]; NPBWR2, Conc 10 uM) [%]	% Antagonist Activity (168 GPCRs [4]; NPBWR2, Conc 10 uM) [%]	% Agonist Activity (168 GPCRs [5]; CX3CR1, 1 uM) [%]	% Antagonist Activity (168 GPCRs [5]; CX3CR1, 1 uM) [%]	% Agonist Activity (168 GPCRs [5]; CX3CR1, 10 uM) [%]	% Antagonist Activity (168 GPCRs [5]; CX3CR1, 10 uM) [%]	further results
CNC(C)Cc1ccc2c(c1)OCO2 (centres unmarked) [MDMA, 3,4-Methylenedioxy methamphetamine, reference compound]	-4.1	19.8	-3	17.2	-1	-1.7	-0.9	-7.4	6.3	-7.5	4.8	-1.7	-2.6	-2.1	-2.3	2.4	-1.3	6.5	-1.4	3.7	% Agonist Activity (168 GPCRs [6]; HCRTR1, 1 uM): -0.2%; % Antagonist Activity (168 GPCRs [6]; HCRTR1, 1 uM): 8.6%; % Agonist Activity (168 GPCRs [6]; HCRTR1, 10 uM): -0.1%; % Antagonist Activity (168 GPCRs [6]; HCRTR1, 10 uM): 15%; % Agonist Activity (168 GPCRs [7]; Conc 1 uM): -1.1%; % Antagonist Activity (168 GPCRs [7]; Conc 1 uM): 4.4%; % Agonist Activity (168 GPCRs [7]; Conc 10 uM): -0.1%; % Antagonist Activity (168 GPCRs [7]; Conc 10 uM): 14.3%
CNC(C)C(=O)c1ccc2c(c1)OCO2 (centres unmarked) [methylone]	-5.7	9	-5	8.9	-2.3	-16	-3	-7.7	3.2	2.9	-3.7	7.6	-0.3	-14.1	1.3	-14	0	-0.2	-0.4	-6.1	% Agonist Activity (168 GPCRs [6]; HCRTR1, 1 uM): -0.1%; % Antagonist Activity (168 GPCRs [6]; HCRTR1, 1 uM): 2.3%; % Agonist Activity (168 GPCRs [6]; HCRTR1, 10 uM): -0.1%; % Antagonist Activity (168 GPCRs [6]; HCRTR1, 10 uM): 1.2%; % Agonist Activity (168 GPCRs [7]; Conc 1 uM): 0.6%; % Antagonist Activity (168 GPCRs [7]; Conc 1 uM): -2.1%; % Agonist Activity (168 GPCRs [7]; Conc 10 uM): 0%; % Antagonist Activity (168 GPCRs [7]; Conc 10 uM): 4.2%
